The source of these data is patent US20070191350A1, “Combinations comprising alpha-2-delta ligands” (Pifizer Inc., priority 2004, published 2007).

The data set can be described thus: Plasma concentration (Cmax) of gabapentin in the rat.

The structures appear in SMILES notation.

Regarding `NCC1(CC(=O)O)CCCCC1` [gabapentin, 1-(aminomethyl)-cyclohexylacetic acid], the Cmax was in the range of 520 to 10500 ng/mL.

What is called Cmax is the peak of the concentration-time curve.
